# Values quoted from earlier work, collected in patent US12059469B2, “Compositions and methods for wound treatment” (priority 2017, dated 2024).
# What was measured:
# mouse ear punch wound = conditions: topical application, dissolved in DMSO
# [1] = tested on: Wnt/β-catenin-mediated transcription; conditions: through TNK 1 and 2 inhibition
structure (smiles),measurement,setting,value
"Oc1nc(-c2ccc(C(F)(F)F)cc2)nc2c1CSCC2 [XAV939, 3,5,7,8-Tetrahydro-2-[4-(trifluoromethyl)phenyl]-4H-thiopyrano[4,3-d]pyrimidin-4-one]",effect on TGF-β,TGF-β,does not affect
same,effect on NF-κK,NF-κK,does not affect
same,effect on CRE,CRE,does not affect
same,aqueous solubility,,< 1000 µg/mL
same,fibrosis (scarring),mouse ear punch wound,reduced fibrosis
same,rate of wound closure,mouse ear punch wound,significantly increased rate of wound closure
same,Wnt/β-catenin-mediated transcription,[1],selectively inhibits
